target: SOS1-KRAS (Homo sapiens, UniProt Q07889); assay: Inhibition of N-terminal GST-tagged recombinant human KRAS G12C mutant (1 to 169 residues) expressed in Escherichia coli/N-terminal His10-tagged wild-type recombinant human SOS1 catalytic domain (564 to 1049 residues) expressed in Escherichia coli protein-protein interaction preincubated for 2 mins with KRAS followed by SOS1 addition measured after 60 mins in presence of anti-6His-XL665 by HTRF analysis
Sequence (Q07889 whole entry, looked up, stated change not applied, the tested form may be a part): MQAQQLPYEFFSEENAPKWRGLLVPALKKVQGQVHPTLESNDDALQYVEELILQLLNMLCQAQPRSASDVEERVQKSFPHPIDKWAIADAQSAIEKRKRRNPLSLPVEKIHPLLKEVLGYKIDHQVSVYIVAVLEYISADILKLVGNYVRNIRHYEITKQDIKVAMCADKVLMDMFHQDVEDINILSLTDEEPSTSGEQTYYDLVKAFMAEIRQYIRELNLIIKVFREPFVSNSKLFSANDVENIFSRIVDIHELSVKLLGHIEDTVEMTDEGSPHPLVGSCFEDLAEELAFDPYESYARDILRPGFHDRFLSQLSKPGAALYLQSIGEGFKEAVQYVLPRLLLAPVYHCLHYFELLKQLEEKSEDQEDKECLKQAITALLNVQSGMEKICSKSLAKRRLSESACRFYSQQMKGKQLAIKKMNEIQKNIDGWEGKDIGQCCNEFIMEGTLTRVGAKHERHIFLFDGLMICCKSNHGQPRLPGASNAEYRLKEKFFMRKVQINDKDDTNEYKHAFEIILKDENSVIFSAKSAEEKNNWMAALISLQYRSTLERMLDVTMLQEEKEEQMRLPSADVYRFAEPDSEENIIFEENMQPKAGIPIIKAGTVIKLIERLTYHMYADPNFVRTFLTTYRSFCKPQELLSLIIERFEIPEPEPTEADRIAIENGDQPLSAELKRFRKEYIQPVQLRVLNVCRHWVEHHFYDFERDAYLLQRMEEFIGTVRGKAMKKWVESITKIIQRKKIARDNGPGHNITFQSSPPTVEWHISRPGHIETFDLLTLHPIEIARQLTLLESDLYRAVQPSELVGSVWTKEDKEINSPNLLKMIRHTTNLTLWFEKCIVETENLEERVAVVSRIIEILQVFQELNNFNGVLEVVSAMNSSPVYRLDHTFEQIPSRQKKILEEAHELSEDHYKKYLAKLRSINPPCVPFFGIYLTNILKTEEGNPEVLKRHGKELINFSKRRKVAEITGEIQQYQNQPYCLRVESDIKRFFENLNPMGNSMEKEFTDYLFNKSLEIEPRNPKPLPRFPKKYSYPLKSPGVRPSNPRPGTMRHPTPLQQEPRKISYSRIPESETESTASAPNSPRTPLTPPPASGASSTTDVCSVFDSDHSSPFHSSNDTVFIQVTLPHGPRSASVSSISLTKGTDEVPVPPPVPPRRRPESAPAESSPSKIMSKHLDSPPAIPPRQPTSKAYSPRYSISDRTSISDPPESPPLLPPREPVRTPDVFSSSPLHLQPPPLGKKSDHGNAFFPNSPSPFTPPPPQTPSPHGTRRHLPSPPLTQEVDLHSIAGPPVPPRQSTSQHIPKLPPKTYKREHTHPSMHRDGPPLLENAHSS

Row | SMILES | IC50
1 | COc1cc2nc(C)nc(N[C@H](C)c3cccc(Br)c3)c2cc1OC | 170 nM
2 | COc1cc2nc(C)nc(N(C)[C@H](C)c3cccc(Br)c3)c2cc1OC | > 20000 nM
3 | CCN(CC)Cc1ccccc1-c1ccc(C(C)Nc2nc(C)nc3cc(OC)c(OC)cc23)s1 (centres undefined) | 170 nM
4 | COc1cc2nc(C)nc(NC(C)c3ccc(-c4ccccc4CCN)s3)c2cc1OC (centres undefined) | 51 nM
5 | COc1cc2nc(C)nc(NC(C)c3ccc(-c4ccccc4CN4CC(F)C4)s3)c2cc1OC (centres undefined) | 410 nM
6 | COc1cc2nc(C)nc(NC(C)c3ccc(-c4ccccc4CNCCO)s3)c2cc1OC (centres undefined) | 46 nM
7 | COc1cc2nc(C)nc(NC(C)c3ccc(-c4ccccc4CN(C)CCO)s3)c2cc1OC (centres undefined) | 47 nM
8 | COc1cc2nc(C)nc(NC(C)c3ccc(-c4ccc(F)cc4CNC(C)=O)s3)c2cc1OC (centres undefined) | 590 nM
9 | COc1cc2nc(C)nc(NC(C)c3ccc(-c4ccccc4CNCc4ccccc4)s3)c2cc1OC (centres undefined) | 470 nM
10 | COc1cc2nc(C)nc(NC(C)c3ccc(-c4ccccc4C#N)s3)c2cc1OC (centres undefined) | 590 nM
11 | COc1cc2nc(C)nc(NC(C)c3ccc(-c4ccccc4CNCC(F)(F)F)s3)c2cc1OC (centres undefined) | 3150 nM
12 | COc1cc2nc(C)nc(NC(C)c3ccc(-c4ccccc4CN)s3)c2cc1OC (centres undefined) | 80 nM
13 | COc1cc2nc(C)nc(NC(C)c3ccc(-c4ccccc4C(C)(C)N)s3)c2cc1OC (centres undefined) | 400 nM
14 | COc1cc2nc(C)nc(NC(C)c3ccc(-c4ccccc4[C@H](C)N)s3)c2cc1OC (some centres undefined) | 230 nM
15 | COc1cc2nc(C)nc(NC(C)c3ccc(-c4ccccc4S(C)(=O)=O)s3)c2cc1OC (centres undefined) | 1410 nM
16 | COc1cc2nc(C)nc(NC(C)c3ccc(-c4ccccc4C(N)=O)s3)c2cc1OC (centres undefined) | 3210 nM

target: Epidermal growth factor receptor (Homo sapiens, UniProt P00533); assay: Inhibition of human EGFR using biotin-aminohexyl-AEEEEYFELVAKKK as substrate preincubated for 15 mins followed by substrate/ATP addition measured after 20 mins by FRET assay
Sequence (P00533 whole entry): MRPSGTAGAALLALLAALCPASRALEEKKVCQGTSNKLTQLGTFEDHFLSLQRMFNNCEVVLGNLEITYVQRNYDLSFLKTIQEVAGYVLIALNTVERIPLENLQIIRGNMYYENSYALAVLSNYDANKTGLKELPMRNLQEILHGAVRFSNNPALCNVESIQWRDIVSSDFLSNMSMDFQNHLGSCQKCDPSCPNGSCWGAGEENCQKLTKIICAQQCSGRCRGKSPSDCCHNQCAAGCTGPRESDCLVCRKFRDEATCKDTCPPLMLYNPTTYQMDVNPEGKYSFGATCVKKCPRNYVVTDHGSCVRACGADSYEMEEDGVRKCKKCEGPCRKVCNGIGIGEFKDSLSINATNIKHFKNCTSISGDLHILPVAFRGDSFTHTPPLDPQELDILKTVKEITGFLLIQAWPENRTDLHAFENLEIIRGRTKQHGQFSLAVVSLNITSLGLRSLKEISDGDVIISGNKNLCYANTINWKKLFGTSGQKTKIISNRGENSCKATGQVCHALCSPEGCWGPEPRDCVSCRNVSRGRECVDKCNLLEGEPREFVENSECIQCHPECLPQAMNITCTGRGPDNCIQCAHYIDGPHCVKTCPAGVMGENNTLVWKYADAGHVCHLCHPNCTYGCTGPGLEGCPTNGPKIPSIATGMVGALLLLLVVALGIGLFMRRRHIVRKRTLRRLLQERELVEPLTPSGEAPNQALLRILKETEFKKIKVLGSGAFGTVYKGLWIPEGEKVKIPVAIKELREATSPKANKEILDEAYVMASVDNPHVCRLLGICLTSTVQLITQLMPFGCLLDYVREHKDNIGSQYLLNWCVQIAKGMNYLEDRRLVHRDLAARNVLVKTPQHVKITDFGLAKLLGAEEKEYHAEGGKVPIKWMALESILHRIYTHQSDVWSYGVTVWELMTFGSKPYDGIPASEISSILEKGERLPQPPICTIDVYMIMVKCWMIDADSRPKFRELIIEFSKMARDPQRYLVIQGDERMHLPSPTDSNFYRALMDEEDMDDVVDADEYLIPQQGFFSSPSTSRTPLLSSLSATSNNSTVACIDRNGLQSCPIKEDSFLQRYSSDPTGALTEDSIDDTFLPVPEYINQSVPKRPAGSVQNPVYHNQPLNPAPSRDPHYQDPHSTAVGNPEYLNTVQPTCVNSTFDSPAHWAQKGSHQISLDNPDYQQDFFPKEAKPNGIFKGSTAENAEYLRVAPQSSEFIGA

Row | SMILES | IC50
17 | COc1cc2nc(C)nc(N[C@H](C)c3cccc(Br)c3)c2cc1OC | > 20000 nM
18 | COc1cc2nc(C)nc(N(C)[C@H](C)c3cccc(Br)c3)c2cc1OC | > 20000 nM
19 | COc1cc2nc(C)nc(N[C@H](C)c3cccc4ccccc34)c2cc1OC | > 20000 nM
